Data on 7 compounds can be found in patent US20240067632A1, “WEE1 Degrading Compounds and Uses Thereof” (Bristol-Myers Squibb Company, priority 2022, published 2024).

Each structure is given as a SMILES string.

One test deals with T1, WEE1 (Homo sapiens, UniProt P30291+Q96SW2).
T1 construct: C-terminal ePL-tagged (DiscoverX, Fremont, CA) full-length WEE1 expression construct; expressed in transfected cells; host or cells: LentiX-HEK293T (Invitrogen), lentiviral transduction; co-expressing GSPT1-GN (G576N, lacking the first 158 amino acids)
Kind of test: WEE1-ePL degradation assay (LentiX-WEE1-ePL-GSPT1-ND cells, InCELL Hunter luminescence, 4 h). Conditions: 293T-LentiX WEE1-ePL cells; for 293T-LentiX WEE1-ePL Degradation 4 hr (Ymin): lower limit of the fit (0 = luciferase inhibitor, Ymax = DMSO control); for DC50: read-out: 293T-LentiX WEE1-ePL Degradation 4 hr (EC50). It counts as cell-based. Summed up: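 First, compounds were pre-plated as 10-point, 3-fold dilutions (top 1 uM or 10 uM) with DMSO control; next, WEE1-ePL-expressing HEK293T cells were added and held 4 h at 37 °C; finally, InCELL Hunter reagent was applied for 30 min before luminescence reading. A 4PL fit gave EC50 and Ymin.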

The next test relates to MKN45 cells. Kind of test: MKN45 cell proliferation assay (Cell-Titer-Glo, 120 h). It counts as cell-based. To be noted: for EC50: Homo sapiens, MKN-45, 120 h, Cell-Titer-Glo, growth inhibition, read-out: MKN45 Cell Prolif. 120 hr (EC50); for MKN45 Cell Prolif. 120 hr (Ymin-Obs): minimal percent of DMSO control observed in the concentrations tested. In short, it runs like this:
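Growth inhibition was read as blank-corrected Cell-Titer-Glo luminescence expressed as percent DMSO control after 120 h at 37 C, 400 cells/well. Compounds tested in triplicate as 10-point half-log series from 1 or 10 uM, 0.1% DMSO; four-parameter fit gave EC50, and lowest observed percent control was reported as Ymin-obs.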

For orientation: EC50 means the concentration that produces a half-maximal response. As for `CO[C@H]1CCC[C@@H](c2ccc3cc(CN4CC[C@H](Oc5ccc6c(c5)CN(C5CCC(=O)NC5=O)C6=O)C4)ccc3n2)C1` (stereo partly drawn) [3-(5-{[(3S)-1-({2-[(1R,3S)-3-methoxycyclohexyl]quinolin-6-yl}methyl)pyrrolidin-3-yl]oxy}-1-oxo-2,3-dihydro-1H-isoindol-2-yl)piperidine-2,6-dione], at WEE1, the “293T-LentiX WEE1-ePL Degradation 4 hr (Ymin)” value was 27.5 and the DC50 was found to be 3.49 nM. In addition, in the test with MKN45 cells, the EC50 was determined as 1.96 nM and the “MKN45 Cell Prolif. 120 hr (Ymin-Obs)” value is given as 7.623.
In the same order, the values of `CO[C@H]1CC[C@@H](c2ccc3cc(CN4CC[C@H](Oc5ccc6c(c5)CN(C5CCC(=O)NC5=O)C6=O)C4)ccc3n2)C1` (stereo partly drawn) [3-(5-{[(3S)-1-({2-[(1R,3S)-3-methoxycyclopentyl]quinolin-6-yl}methyl)pyrrolidin-3-yl]oxy}-1-oxo-2,3-dihydro-1H-isoindol-2-yl)piperidine-2,6-dione] are 28.33, 3.2 nM, 0.741 nM and 7.233.
For the compound `O=C1CCC(N2Cc3cc(O[C@H]4CCN(Cc5ccc6nc(N7C[C@H]8C[C@@H]7CO8)ncc6c5)C4)ccc3C2=O)C(=O)N1` (stereo partly drawn) [3-(5-{[(3S)-1-({2-[(1R,4R)-2-oxa-5-azabicyclo[2.2.1]heptan-5-yl]quinazolin-6-yl}methyl)pyrrolidin-3-yl]oxy}-1-oxo-2,3-dihydro-1H-isoindol-2-yl)piperidine-2,6-dione], at WEE1, the “293T-LentiX WEE1-ePL Degradation 4 hr (Ymin)” value worked out at 39 and the DC50 was found to be 80.1 nM. Also, in the test with MKN45 cells, the EC50 stood at 76.6 nM and the “MKN45 Cell Prolif. 120 hr (Ymin-Obs)” value worked out at 16.57.
In the same order, the values of `O=C1CCC(N2Cc3cc(O[C@H]4CCN(Cc5ccc6nc(N7C[C@H]8C[C@@H]7CO8)ccc6c5)C4)ccc3C2=O)C(=O)N1` (stereo partly drawn) [3-(5-{[(3S)-1-({2-[(1R,4R)-2-oxa-5-azabicyclo[2.2.1]heptan-5-yl]quinolin-6-yl}methyl)pyrrolidin-3-yl]oxy}-1-oxo-2,3-dihydro-1H-isoindol-2-yl)piperidine-2,6-dione] are 33, 5.67 nM, 6.19 nM and 9.745.
In the same order, the values of `O=C1CCC(N2Cc3cc(O[C@H]4CCN(Cc5ccc6nc(N7[C@@H]8COC[C@H]7C8)ncc6c5)C4)ccc3C2=O)C(=O)N1` (stereo partly drawn) [3-(5-{[(3S)-1-({2-[(1R,5S)-3-oxa-6-azabicyclo[3.1.1]heptan-6-yl]quinazolin-6-yl}methyl)pyrrolidin-3-yl]oxy}-1-oxo-2,3-dihydro-1H-isoindol-2-yl)piperidine-2,6-dione] are 38, 117 nM, 17 nM and 10.76.
In the same order, the values of `O=C1CCC(N2Cc3cc(O[C@H]4CCN(Cc5ccc6nc(N7[C@@H]8COC[C@H]7C8)ccc6c5)C4)ccc3C2=O)C(=O)N1` (stereo partly drawn) [3-(5-{[(3S)-1-({2-[(1R,5S)-3-oxa-6-azabicyclo[3.1.1]heptan-6-yl]quinolin-6-yl}methyl)pyrrolidin-3-yl]oxy}-1-oxo-2,3-dihydro-1H-isoindol-2-yl)piperidine-2,6-dione] are 37, 8.62 nM, 11.2 nM and 9.645.
For the compound `O=C1CCC(N2Cc3cc(O[C@H]4CCN(Cc5ccc6nc(N7[C@@H]8CC[C@H]7COC8)ncc6c5)C4)ccc3C2=O)C(=O)N1` (stereo partly drawn) [3-(5-{[(3S)-1-({2-[(1R,5S)-3-oxa-8-azabicyclo[3.2.1]octan-8-yl]quinazolin-6-yl}methyl)pyrrolidin-3-yl]oxy}-1-oxo-2,3-dihydro-1H-isoindol-2-yl)piperidine-2,6-dione], on WEE1, the “293T-LentiX WEE1-ePL Degradation 4 hr (Ymin)” value amounted to 33 and the DC50 was 101 nM. In the test with MKN45 cells, the EC50 was 24.9 nM and the “MKN45 Cell Prolif. 120 hr (Ymin-Obs)” value stood at 8.88.
